Source: US9023821B2, “Use of MicroRNA for treating diseases associated with a dysfunction of the cilia in multiciliated epithelial cells” (Centre National de la Recherche Scientifique, priority 2009, dated 2015)

Legend:
[1] = test system: basal cells and pyramidal cells of the airway epithelium; experiment: miRNA expression in sorted basal cells versus pyramidal cells (ciliated + secretory), HTS and Agilent chips; design: species or system human; details: for Modulation of expression of the miRNAs in pyramidal cells (323(−)) relative to basal cells 323(+): HTS and Agilent chips; for Intensity of the level of expression in log2 in pyramidal cells (323(−)): pyramidal cells (ciliated + secretory)
Procedure: After dissociation of the stroma of nasal polyps, the epithelial cells (about 20.10^6) are incubated in PBS-BSA-EDTA for 30 min and then incubated with labeled antibody CD151-PE and anti-TF (tissue factor)-FITC for 20 min, 4° C. (see Hajj, R. et al., Stem Cells 25, 139-148 (2007)). After washing twice, the cells are taken up in PBS-EDTA and incubated with DAPI for labeling the cells whose integrity has been altered.
Cell sorting was carried out on the FACSAria sorter (BD Biosciences) equipped with 3 lasers, blue, red and violet. Dead cells, aggregates and double cells were excluded. The doubly positive population of basal cells (CD151+/FT+) and the negative population of cylindrical cells (containing ciliated cells and mucus-secreting cells) (CD151−/FT−) were selected and sorted at a rate of 5000 events/s ([…]). The purity and identity of the sorted cells were then verified by cytometry and immunocytochemistry.
Like the native airway epithelium, the model of differentiation in vitro used in these tests consists of basal cells, ciliated cells and mucus-secreting cells. In order to identify the repertoires of the miRNAs specific to each of the cellular types, the inventors used cell sorting by flow cytometry by means of specific markers (Hajj, R. et al. 2007). Using this technique, adult airway progenitor cells (corresponding a priori to basal cells) were isolated, selected and sorted (such cells appear doubly positive for tetraspanin CD151 and for the tissue factor) from the pyramidal cells (i.e. ciliated cells and mucus-secreting cells) which appear negative for these same markers. These were purified from polyps or from nasal conchae obtained from 3 separate donors.
After extracting the total RNAs, the expression profiles of the miRNAs were established by means of Agilent® commercial chips or by high-throughput sequencing (HTS). […] For the first time, the inventors thus attribute a repertoire of expression of the miRNAs specifically to separate cellular types of the airway epithelium during differentiation.

[2] = test system: human airway epithelial cells (HAECs); experiment: High-throughput sequencing (HTS) of miRNAs at four stages of differentiation of HAECs; details: for Modulation (ratio of the level of intensity of expression in log2 in two stages of differentiation) measured by high-throughput sequencing, D7 − D0 / Modulation (ratio of the level of intensity of expression in log2 in two stages of differentiation) measured by high-throughput sequencing, FC − D7 / Modulation (ratio of the level of intensity of expression in log2 in two stages of differentiation) measured by high-throughput sequencing, WD − D0 / Modulation (ratio of the level of intensity of expression in log2 in two stages of differentiation) measured by high-throughput sequencing, WD − FC / Level of intensity of expression in log2 measured by high-throughput sequencing, D0 / Level of intensity of expression in log2 measured by high-throughput sequencing, D7 / Level of intensity of expression in log2 measured by high-throughput sequencing, FC / Level of intensity of expression in log2 measured by high-throughput sequencing, WD: Table VI; for Level of intensity of expression in log2 At the differentiated stage (WD) measured in HTS: healthy human airway epithelial tissue; for Level of intensity of expression in log2 measured by high-throughput sequencing, D0: stage D0; for Level of intensity of expression in log2 measured by high-throughput sequencing, D7: stage D7; for Level of intensity of expression in log2 measured by high-throughput sequencing, FC: stage FC; for Level of intensity of expression in log2 At the differentiated stage (WD) measured in HTS / Level of intensity of expression in log2 measured by high-throughput sequencing, WD: stage WD
Excerpt: The total RNAs were extracted from HAECs cultivated at the air-liquid interface at four stages of differentiation: ALI-D0 (0 day), ALI-D7 (7 days), ALI-FC (during appearance of the first cilia at about 14 days) and ALI-WD (wholly differentiated at about 21 days). The cells are lysed in reagent with Trizol® (Invitrogen). The total RNAs containing small RNAs and microRNAs are purified on Qiagen RNEasy columns (Qiagen) according to the supplier's instructions.
The total RNAs containing small RNAs and microRNAs are isolated as before. The procedure is based on the Applied Biosystems Ligase-Enhanced Genome Detection technology (LEGenD™); the SOLiD™ Small RNA Expression kit (Applied Biosystems, France) was used. With this method it is possible to convert the small RNAs of a sample into a library of double-stranded DNA; it was developed by Applied Biosystems SOLiD™ System for a new generation of high-throughput sequencing.
The high-throughput sequencing of the microRNAs was carried out according to the supplier's recommendations. Briefly, the total RNAs containing the small RNAs are hybridized (65° C., 10 min, then at 16° C., 5 min) and ligated (16° C., 2-16 h in a thermocycler) with the Adaptor Mix A for producing a matrix for sequencing the 5′ end of the small RNAs, or with the Adaptor Mix B for sequencing the 3′ end. The samples are then reverse-transcribed (42° C., 30 min) to synthesize the complementary DNA (cDNA). The library of small RNAs is amplified by PCR and after migration on polyacrylamide gel the amplified small RNAs are cut out and extracted from the gel according to their size (length of about 105-150 bases, according to the supplier's instructions), eluted and resuspended in nuclease-free water. The concentration of nucleic acids is then measured and normalized before proceeding with preparation of the samples for sequencing.
For each microRNA sequenced, the number of sequences of the 5p strand and of the 3p strand of the microRNA was normalized to 10^6 sequences and converted to percentage abundance of expression for each of the microRNAs. The data were then normalized according to a linear model and an empirical Bayesian method using software R. For subsequent analyses, only the microRNAs were retained for which the percentage expression (or abundance) is greater than 1% of the total of the microRNAs in at least one culture condition, with a |Log2 Ratio| below 0.5 and an adjusted P-value below 0.05.

[3] = test system: human airway epithelial cells (HAECs); experiment: Agilent miRNA chips, miRNA expression at four stages of differentiation of HAECs; details: for Modulation (ratio of the level of intensity of expression in log2 in two stages of differentiation) measured with the Agilent chips, D7 − D0 / Modulation (ratio of the level of intensity of expression in log2 in two stages of differentiation) measured with the Agilent chips, FC − D7 / Modulation (ratio of the level of intensity of expression in log2 in two stages of differentiation) measured with the Agilent chips, WD − D0 / Modulation (ratio of the level of intensity of expression in log2 in two stages of differentiation) measured with the Agilent chips, WD − FC / Level of intensity of expression in log2 measured with the Agilent chips, D0 / Level of intensity of expression in log2 measured with the Agilent chips, D7 / Level of intensity of expression in log2 measured with the Agilent chips, FC / Level of intensity of expression in log2 measured with the Agilent chips, WD: Table VI; for Modulation (ratio of the level of intensity of expression in log2 at two stages of differentiation), FC − D7 / Modulation (ratio of the level of intensity of expression in log2 at two stages of differentiation), WD − FC: Agilent miRNA chips, Table V; for Level of intensity of expression in log2 measured with the Agilent chips, D0: stage D0; for Level of intensity of expression in log2 measured with the Agilent chips, D7: stage D7; for Level of intensity of expression in log2 measured with the Agilent chips, FC: stage FC; for Level of intensity of expression in log2 measured with the Agilent chips, WD: stage WD
Excerpt: In parallel with the high-throughput sequencing of the microRNAs, the repertoire of expression of the microRNAs (microRNAome) is investigated using the technology of Agilent® microRNA chips. For this, RNA samples from the same patients as before were used, labeled and hybridized on Agilent® miRNA chips (Human miRNA Microarray v2, containing 866 human miRNAs and 89 human viral miRNAs, i.e. all the human miRNAs contained and referenced in Sanger miRBase v.12.0, Agilent Technologies, France) using the “miRNA labeling and hybridization” kit, following the supplier's instructions (Agilent Technologies).
The inventors then used the Agilent miRNA chips to investigate the repertoire of expression of the miRNAs of the human airway epithelium and compare the results obtained in high-throughput sequencing with those obtained with Agilent® commercial miRNA chips.

| Substance | Modulation of expression of the miRNAs in pyramidal cells (323(−)) relative to basal cells 323(+) [1] | Intensity of the level of expression in log2 in basal cells (323(+)) [1] [log2] | Intensity of the level of expression in log2 in pyramidal cells (323(−)) [1] [log2] | Modulation (ratio of the level of intensity of expression in log2 in two stages of differentiation) measured by high-throughput sequencing, D7 − D0 [2] [log2] | Modulation (ratio of the level of intensity of expression in log2 in two stages of differentiation) measured by high-throughput sequencing, FC − D7 [2] [log2] | Modulation (ratio of the level of intensity of expression in log2 in two stages of differentiation) measured by high-throughput sequencing, WD − D0 [2] [log2] | Modulation (ratio of the level of intensity of expression in log2 in two stages of differentiation) measured by high-throughput sequencing, WD − FC [2] [log2] | Level of intensity of expression in log2 At the differentiated stage (WD) measured in HTS [2] [log2] | Level of intensity of expression in log2 measured by high-throughput sequencing, D0 [2] [log2] | Level of intensity of expression in log2 measured by high-throughput sequencing, D7 [2] [log2] | Level of intensity of expression in log2 measured by high-throughput sequencing, FC [2] [log2] | Level of intensity of expression in log2 measured by high-throughput sequencing, WD [2] [log2] | Modulation (ratio of the level of intensity of expression in log2 in two stages of differentiation) measured with the Agilent chips, D7 − D0 [3] [log2] | Modulation (ratio of the level of intensity of expression in log2 in two stages of differentiation) measured with the Agilent chips, FC − D7 [3] [log2] | Modulation (ratio of the level of intensity of expression in log2 in two stages of differentiation) measured with the Agilent chips, WD − D0 [3] [log2] | Modulation (ratio of the level of intensity of expression in log2 in two stages of differentiation) measured with the Agilent chips, WD − FC [3] [log2] | Level of intensity of expression in log2 measured with the Agilent chips, D0 [3] [log2] | Level of intensity of expression in log2 measured with the Agilent chips, D7 [3] [log2] | Level of intensity of expression in log2 measured with the Agilent chips, FC [3] [log2] | Level of intensity of expression in log2 measured with the Agilent chips, WD [3] [log2] | also measured |
| --- | --- | --- | --- | --- | --- | --- | --- | --- | --- | --- | --- | --- | --- | --- | --- | --- | --- | --- | --- | --- | --- |
| hsa-miR-16: human miRNA, SEQ ID No. 10 (UAGCAGCACGUAAAUAUUGGCG; expressed or natural sequence; listed as Homo sapiens) | −0.48 | 9.10 | 8.62 | 2.01 | −1.17 | 2.22 | 1.38 | 5.35 | 3.13 | 5.14 | 3.97 | 5.35 | 2.07 | −0.36 | 1.59 | −0.11 | 9.47 | 11.54 | 11.18 | 11.06 | Modulation (ratio of the level of intensity of expression in log2 at two stages of differentiation), FC − D7 [3]: −0.36 log2; Modulation (ratio of the level of intensity of expression in log2 at two stages of differentiation), WD − FC [3]: −0.11 log2 |
| hsa-miR-17: human miRNA, SEQ ID No. 11 (CAAAGUGCUUACAGUGCAGGUAG; expressed or natural sequence; listed as Homo sapiens) | −2.60 | 6.64 | 4.04 | −0.17 | −0.87 | −1.24 | −0.20 | 11.61 | 12.85 | 12.68 | 11.81 | 11.61 | 0.31 | −1.14 | −1.22 | −0.39 | 9.03 | 9.34 | 8.19 | 7.81 | Modulation (ratio of the level of intensity of expression in log2 in two stages of differentiation), D7 − D0 ([2]; HTS): −0.17 log2; Modulation (ratio of the level of intensity of expression in log2 in two stages of differentiation), FC − D7 ([2]; HTS): −0.87 log2; Modulation (ratio of the level of intensity of expression in log2 in two stages of differentiation), WD − FC ([2]; HTS): −0.20 log2; Abundance (%), D0 ([2]; HTS, ALI-D0): 1.61%; Abundance (%), D7 ([2]; HTS, ALI-D7): 1.44%; Abundance (%), FC ([2]; HTS, ALI-FC): 0.76%; Abundance (%), WD ([2]; HTS, ALI-WD): 0.50% |
| hsa-miR-22: human miRNA, SEQ ID No. 23 (AAGCUGCCAGUUGAAGAACUGU; expressed or natural sequence; listed as Homo sapiens) | −1.73 | 8.81 | 7.07 | 0.80 | −1.14 | 0.40 | 0.73 | 11.22 | 8.89 | 9.69 | 8.55 | 9.29 | 1.09 | −0.66 | 0.48 | 0.05 | 10.67 | 11.75 | 11.10 | 11.15 | Modulation (ratio of the level of intensity of expression in log2 at two stages of differentiation), FC − D7 [3]: −0.66 log2; Modulation (ratio of the level of intensity of expression in log2 at two stages of differentiation), WD − FC [3]: 0.05 log2 |
